From PubChem BioAssay (NCI)
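All cell lines were grown in 96-well plates and treated with compound for 48 hours. At the TGI there is no net growth.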

What was measured:
Assay in all cases: inhibition of tumour cell growth, NCI panel, 48 h
[1] = system: DU-145 prostate
[2] = system: HOP-62 NSCLC
[3] = system: CAKI-1 renal
[4] = system: NCI/ADR-RES ovarian
[5] = system: BT-549 breast
[6] = system: SW-620 colon
[7] = system: A549 NSCLC
[8] = system: SK-MEL-28 melanoma
[9] = system: NCI-H460 lung
[10] = system: SR leukemia

| Structure (SMILES) | TGI [1] | TGI [2] | TGI [3] | TGI [4] | TGI [5] | TGI [6] | TGI [7] | TGI [8] | TGI [9] | TGI [10] |
| --- | --- | --- | --- | --- | --- | --- | --- | --- | --- | --- |
| COc1cc(/C=C2\CC3C4CC=C5C[C@@H](O)CC[C@]5(C)C4CC[C@]3(C)\C2=N\O)cc(OC)c1OC (some centres not stated) | > 100 µM | > 100 µM | 37.7 µM | 74.3 µM | 37.2 µM | > 100 µM | > 100 µM | > 100 µM | 54.9 µM |  |
| CC(Nc1cccc(Cl)c1)c1ccncc1 (configuration not stated) | > 100 µM | > 100 µM | > 100 µM | > 100 µM | > 100 µM | > 100 µM | > 100 µM | > 100 µM | > 100 µM |  |
| O=S(=O)(O)c1cc(O)c(N=NC2S(=O)(=O)OCCOS2(=O)=O)c2ccccc12 | > 100 µM | > 100 µM | > 100 µM | > 100 µM | > 100 µM | > 100 µM | > 100 µM | > 100 µM | > 100 µM |  |
| CCOC(=O)c1nc(SC)sc1NC(=O)c1ccc(OC)cc1 | > 100 µM | > 100 µM | > 100 µM | > 100 µM |  | > 100 µM | > 100 µM | > 100 µM | > 100 µM |  |
| CC(C)C(Sc1nc(-c2ccccc2)c(-c2ccccc2)[nH]1)C(=O)N/N=C/c1ccc(Cl)cc1 (configuration not stated) |  | 42.5 µM | 69.9 µM |  |  | 68.2 µM | 82.3 µM | 45.2 µM | 52.8 µM | > 100 µM |
| Cc1cccc(C)c1NC(=S)N/C=C(\C#N)C(N)=O | > 100 µM | > 100 µM | > 100 µM | > 100 µM |  | > 100 µM | > 100 µM | > 100 µM | > 100 µM |  |
| Cc1cc(C)c2c(-c3ccccc3)cc(=O)[nH]c2c1 | > 100 µM | > 100 µM |  | > 100 µM |  | > 100 µM | > 100 µM | > 100 µM | > 100 µM |  |
| COC(=O)[C@H](Cc1ccccc1)NC(=O)N(CCN(CCC#N)C(=O)N[C@H](C(=O)OC)C(C)C)c1ccccc1 | > 100 µM | > 100 µM | > 100 µM | > 100 µM | > 100 µM | > 100 µM | > 100 µM | > 100 µM |  |  |
| COC(=O)C1=C(C(=O)OC)C23CC4CCC2(C(=O)C1O3)C4(C)C (configuration not stated) | > 100 µM |  | > 100 µM |  |  | > 100 µM | > 100 µM | > 100 µM | > 100 µM | > 100 µM |
